Counter-ions that a name gives are not always drawn.
Legend:
[1] = tested on: 5-HT transmission; assay: Fenfluramine-induced hyperthermia in rats (reduction of 5-HT transmission in vivo); conditions: four day chronic pretreatment, 10 mg/kg ip. twice daily, fenfluramine 7.5 mg/kg ip.
Method: The activity of the compounds to reduce 5-HT transmission can be assessed in vivo by measuring their effect on the hyperthermia induced by an intraperitoneal injection of fenfluramine (see A. Sulpizio et al, Life Sciences 22 1439 (1978). As an illustration a four day chronic pretreatment of rats with 3-(3'-methoxyphenyl)-3-(3"-N,N dimethylaminopropyl) 4,4-dimethyl-2,6-dioxopiperidine hydrochloride at a dose level of 10 mg/kg ip. twice daily produced a 50 percent reduction in the hyperthermia induced by fenfluramine administered at a dose level of 7.5 mg/kg ip.

[2] = tested on: tryptophan hydroxylase; assay: Inhibition of the depolarisation induction of tryptophan hydroxylase in rat brainstem slices; assay type: cell-based; conditions: 37° C., from concentration response curves, read-out: IC50, concentration causing 50 percent inhibition of the depolarisation induction of tryptophan hydroxylase
Method: The activity of the compounds as inhibitors of the depolarisation induction of tryptophan hydroxylase can be assessed by determining the IC50 in rat brainstem slices as described by Margaret C. Boadle-Biber, Biochemical Pharmacology 27 1069 (1978). The IC50 values are derived from concentration response curves as the concentration causing 50 percent inhibition of the depolarisation induction at 37° C. As an illustration the IC50 of d,l 3-(3'-methoxyphenyl)-3-(3"-N,N-dimethylaminopropyl)-4,4-dimethyl-2,6-dioxopiperidine hydrochloride is 10 μM.

With `COc1cccc(C2(CCCN(C)C)C(=O)NC(=O)CC2(C)C)c1` (racemic) [Example 1, 3-(3'-Methoxyphenyl-3-(3"-N,N-dimethylaminopropyl)-4,4-dimethyl-2,6-dioxopiperidine hydrochloride] the “reduction in the hyperthermia induced by fenfluramine” value [1] was 50% and the IC50 [2] was 10 µM.

— patent US4461771A, “Treatment of migraine with dioxopiperidine derivatives” (priority 1983, dated 1984)
